From patent US9988430B2, “Stable GLP-1 based GLP-1/glucagon receptor co-agonists” (Novo Nordisk A/S, priority 2014, dated 2018)
*1 amine or outer side, *2 acyl side, *3 side chain or, on linkers, in order; H or OH if unused. Where a SMILES comes first, the peptide text is derived from it. Bridges are numbered along the chain shown (N, C = ends). Roman numbers before positions name the chains, in order. Side-chain parts run from the residue outwards. [ ]: non-standard residue; d: D form. The star is where a group is joined. C18 diacid = O=C(O)CCCCCCCCCCCCCCCCC(=O)*; γGlu = O=C(O)[C@H](CCC(=O)[*:2])N[*:1]; Desaminohistidyl = O=C(CCc1c[nH]cn1)*; Ac4c = NC1(C(=O)O)CCC1; Aib = CC(C)(N)C(=O)O

How the values were obtained:
[1] = Assay (V): chemical stability assessment by RP-UPLC; type: physicochemical; conditions: 14 days at 37° C. in phosphate buffer (pH 7.3)
In short: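 Lyophilized peptide dissolved in 8 mM phosphate pH 8.6, adjusted to pH 7.3, final 333 μM, held 14 days at 5° C and 37° C. Purity is main-peak area % by RP-UPLC with UV detection at 215 nm. Degradation is the 5° C minus 37° C purity difference divided by the 5° C purity.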

human GLP-1 receptor = molecular target: T1, human GLP-1 receptor (Homo sapiens, UniProt P43220); experiment: Assay (I)(a): GLP-1 receptor potency, CRE luciferase reporter gene assay in BHK cells; type: cell-based; conditions: BHK cells expressing human GLP-1 receptor, read-out: EC50 GLP-1R
T1 construct: expressed in transfected cells; host or cells: membranes of BHK cells, parent line BHKTS13, clone FCW467-12A
T1 sequence (P43220 24-463): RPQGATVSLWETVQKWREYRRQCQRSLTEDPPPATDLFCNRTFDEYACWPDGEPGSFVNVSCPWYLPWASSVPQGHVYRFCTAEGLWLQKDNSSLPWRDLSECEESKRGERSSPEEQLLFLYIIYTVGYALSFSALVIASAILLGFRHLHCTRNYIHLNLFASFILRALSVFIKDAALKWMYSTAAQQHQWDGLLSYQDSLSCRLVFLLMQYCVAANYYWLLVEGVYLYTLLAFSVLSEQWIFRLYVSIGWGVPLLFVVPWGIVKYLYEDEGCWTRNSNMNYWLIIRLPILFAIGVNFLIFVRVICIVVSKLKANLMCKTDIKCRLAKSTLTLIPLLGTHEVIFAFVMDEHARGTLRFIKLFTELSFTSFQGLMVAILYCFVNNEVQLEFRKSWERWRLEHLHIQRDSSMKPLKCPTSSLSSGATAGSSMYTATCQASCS
In short: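 BHK cells (clone FCW467-12A/KZ10-1), 5×10EE3/well, exposed 3 h at 37° C to compound at 1×10EE-13 to 1×10EE-6 M final in medium with 2% ovalbumin and 0.2% Pluronic F-68. Luciferase luminescence read; EC50 (pM) from four-parameter fit.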

Row | SMILES | Chemical stability: Chemical degradation over 14 days at 37° C. [1] [%] | EC50 (human GLP-1 receptor) [pM]
1 | CC[C@H](C)[C@H](NC(=O)[C@H](Cc1ccccc1)NC(=O)[C@H](CCC(=O)O)NC(=O)[C@H](CCCNC(=N)N)NC(=O)[C@H](C)NC(=O)[C@H](C)NC(=O)[C@H](CCC(N)=O)NC(=O)[C@H](CCC(=O)O)NC(=O)[C@H](CCC(=O)O)NC(=O)[C@H](CC(C)C)NC(=O)[C@H](Cc1ccc(O)cc1)NC(=O)[C@H](CCCCN)NC(=O)[C@H](CO)NC(=O)[C@@H](NC(=O)[C@H](CC(=O)O)NC(=O)[C@H](CO)NC(=O)[C@@H](NC(=O)[C@H](Cc1ccccc1)NC(=O)[C@@H](NC(=O)CNC(=O)[C@H](Cc1c[nH]cn1)NC(=O)C(C)(C)NC(=O)CCc1c[nH]cn1)[C@@H](C)O)[C@@H](C)O)C(C)C)C(=O)N[C@@H](C)C(=O)N[C@@H](Cc1c[nH]c2ccccc12)C(=O)N[C@@H](CC(C)C)C(=O)N[C@@H](CC(C)C)C(=O)N[C@@H](CCCCNC(=O)CNC(=O)[C@H](CO)NC(=O)CC[C@H](NC(=O)CC[C@H](NC(=O)CCCCCCCCCCCCCCCCC(=O)O)C(=O)O)C(=O)O)C(=O)N[C@H](C(N)=O)[C@@H](C)O [Example 4, N^ε34-[2-[[(2S)-2-[[(4S)-4-carboxy-4-[[(4S)-4-carboxy-4-(17-carboxyheptadecanoylamino)butanoyl]amino]butanoyl]amino]-3-hydroxypropanoyl]amino]acetyl]-[Imp7,Aib8,His9,Lys18,Glu22,Arg26,Leu33,Thr35]-GLP-1-(7-35)-peptide amide] (Desaminohistidyl-[Aib]HGTFTSDVSKYLEEQAAREFIAWLLK([Gly-Ser-γGlu-γGlu-C18 diacid])T-NH2) | 0.2 | 7
2 | CC[C@H](C)[C@H](NC(=O)[C@H](Cc1ccccc1)NC(=O)[C@H](CCC(=O)O)NC(=O)[C@H](CCCNC(=N)N)NC(=O)[C@H](C)NC(=O)[C@H](C)NC(=O)[C@H](CCC(N)=O)NC(=O)[C@H](CCC(=O)O)NC(=O)[C@H](CCC(=O)O)NC(=O)[C@H](CC(C)C)NC(=O)[C@H](Cc1ccc(O)cc1)NC(=O)[C@H](CCCCN)NC(=O)[C@H](CO)NC(=O)[C@@H](NC(=O)[C@H](CC(=O)O)NC(=O)[C@H](CO)NC(=O)[C@@H](NC(=O)[C@H](Cc1ccccc1)NC(=O)[C@@H](NC(=O)CNC(=O)[C@H](Cc1c[nH]cn1)NC(=O)C1(NC(=O)CCc2c[nH]cn2)CCC1)[C@@H](C)O)[C@@H](C)O)C(C)C)C(=O)N[C@@H](C)C(=O)N[C@@H](Cc1c[nH]c2ccccc12)C(=O)N[C@@H](CC(C)C)C(=O)N[C@@H](CC(C)C)C(=O)N[C@@H](CCCCNC(=O)CNC(=O)[C@H](CO)NC(=O)[C@H](CCC(=O)O)NC(=O)CNC(=O)[C@H](CO)NC(=O)CC[C@H](NC(=O)CC[C@H](NC(=O)CCCCCCCCCCCCCCCCC(=O)O)C(=O)O)C(=O)O)C(=O)N[C@H](C(N)=O)[C@@H](C)O [Example 9, N^ε34-[2-[[(2S)-2-[[(2S)-4-carboxy-2-[[2-[[(2S)-2-[[(4S)-4-carboxy-4-[[(4S)-4-carboxy-4-(17-carboxyheptadecanoylamino)butanoyl]amino]butanoyl]amino]-3-hydroxypropanoyl]amino]acetyl]amino]butanoyl]amino]-3-hydroxypropanoyl]amino]acetyl]-[Imp7,Acb8,His9,Lys18,Glu22,Arg26,Leu33,Thr35]-GLP-1-(7-35)-peptide amide] (I: Desaminohistidyl-[Ac4c]HGTFTSDVSKYLEEQAAREFIAWLLKT-NH2 / II: {C18 diacid-γGlu-γGlu}-SGESG; amide I:27-II:C) | 0.2 | 5
3 | CC[C@H](C)[C@H](NC(=O)[C@H](Cc1ccccc1)NC(=O)[C@H](CCC(=O)O)NC(=O)[C@H](CCCNC(=N)N)NC(=O)[C@H](C)NC(=O)[C@H](C)NC(=O)[C@H](CCC(N)=O)NC(=O)[C@H](CCC(=O)O)NC(=O)[C@H](CCC(=O)O)NC(=O)[C@H](CC(C)C)NC(=O)[C@H](Cc1ccc(O)cc1)NC(=O)[C@H](CCCCN)NC(=O)[C@H](CO)NC(=O)[C@@H](NC(=O)[C@H](CC(=O)O)NC(=O)[C@H](CO)NC(=O)[C@@H](NC(=O)[C@H](Cc1ccccc1)NC(=O)[C@@H](NC(=O)CNC(=O)[C@H](Cc1c[nH]cn1)NC(=O)C(C)(C)NC(=O)CCc1c[nH]cn1)[C@@H](C)O)[C@@H](C)O)C(C)C)C(=O)N[C@@H](C)C(=O)N[C@@H](Cc1c[nH]c2ccccc12)C(=O)N[C@@H](CC(C)C)C(=O)N[C@@H](CC(C)C)C(=O)N[C@@H](CCCCNC(=O)CC[C@H](NC(=O)CC[C@H](NC(=O)CC[C@H](NC(=O)CC[C@H](NC(=O)CCCCCCCCCCCCCCCCC(=O)O)C(=O)O)C(=O)O)C(=O)O)C(=O)O)C(=O)N[C@H](C(N)=O)[C@@H](C)O [Example 6, N^ε34-[(4S)-4-carboxy-4-[[(4S)-4-carboxy-4-[[(4S)-4-carboxy-4-[[(4S)-4-carboxy-4-(17-carboxyheptadecanoylamino)butanoyl]amino]butanoyl]amino]butanoyl]amino]butanoyl]-[Imp7,Aib8,His9,Lys18,Glu22,Arg26,Leu33,Thr35]-GLP-1-(7-35)-peptide amide] (Desaminohistidyl-[Aib]HGTFTSDVSKYLEEQAAREFIAWLLK([γGlu-γGlu-γGlu-γGlu-C18 diacid])T-NH2) | 0.1 | 7
